We go through four molecules from US8889688B2, “Piperazines as antimalarial agents” (Actelion Pharmaceuticals Ltd., priority 2011, dated 2014).

The term IC50 denotes the concentration needed to halve the response being measured.

The subject of test [1] is P. berghei strain GFP-ANKA. The experiment in a line: In vivo antimalarial efficacy study in infected NMRI mice. The settings on record: female NMRI mice infected with P. berghei GFP-ANKA, single oral dose of 100 mg/kg 24 h after infection, parasitemia 48 h after drug treatment (day 3); for inhibition in vivo at 100 mg/kg: Plasmodium berghei, read-out: Activity (inhibition of parasitemia) expressed as a percent relative to the control group. The method, boiled down:
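Female NMRI mice, in groups of three, were infected i.v. on day 0 with 2×10^7 P. berghei GFP-ANKA parasitized erythrocytes. At 24 h they received one oral 100 mg/kg dose in Tween 80/ethanol (7%/3%). Parasitemia was counted by FACS on day 3, and activity was given as percent reduction versus controls.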

Test [2] deals with erythrocytic stages of P. falciparum NF54. The experiment in a line: Plasmodium falciparum in vitro assay, [3H] hypoxanthine incorporation. The test is classed as cell-based. The settings on record: P. falciparum NF54 in human red blood cells, 48 h + 24 h incubation. The method, boiled down: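 Cultures in human red blood cells (2.5% hematocrit, 0.3% parasitemia) were exposed to serially diluted compounds for 48 h at 37° C. under 4% CO2, 3% O2, 93% N2. [3H] hypoxanthine (0.5 μCi) was added for a further 24 h, incorporation counted by scintillation, and IC50 derived from sigmoidal inhibition curves.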

Setting [3] is: Plasmodium falciparum, Erythrocyte, 72 h, screening medium with Albumax (5 g/L), read-out: IC50 on NF54 (with Albumax).
[4] abbreviates: Plasmodium falciparum, Erythrocyte, 72 h, screening medium with human serum (50% final concentration), read-out: IC50 on NF54 (with 50% Serum).

Where two headings read alike, the source gives them in different places.

`CCc1ccc(C=CC(=O)N(Cc2ccc(N3CCN(C(C)=O)CC3)cc2)[C@@H](Cc2ccccc2)C(=O)N2CCN(Cc3ccc(N(C)CCO)cc3)CC2)cc1` [Example 59, (S)-N-[4-(4-Acetyl-piperazin-1-yl)-benzyl]-N-[1-benzyl-2-(4-{4-[(2-hydroxy-ethyl)-methyl-amino]-benzyl}-piperazin-1-yl)-2-oxo-ethyl]-3-(4-ethyl-phenyl)-acrylamide]: the inhibition in vivo at 100 mg/kg in test [1] came out at 96.5%. Also, the IC50 in test [2] (setting [3]) is 1.6 nM; in test [2] (setting [4]), 3.8 nM.

Regarding `CC(=O)N1CCN(c2ccc(CN(C(=O)C=Cc3ccc(OC(F)F)cc3)[C@@H](Cc3ccccc3)C(=O)N3CCN(Cc4ccc(N(C)CCO)cc4)CC3)cc2)CC1` [Example 60, (S)-N-[4-(4-Acetyl-piperazin-1-yl)-benzyl]-N-[1-benzyl-2-(4-{4-[(2-hydroxy-ethyl)-methyl-amino]-benzyl}-piperazin-1-yl)-2-oxo-ethyl]-3-(4-difluoromethoxy-phenyl)-acrylamide], the inhibition in vivo at 100 mg/kg in test [1] is 78.3%. The concentration for half-maximal inhibition (IC50) in test [2] (setting [3]) amounted to 3 nM; in test [2] (setting [4]), 8.1 nM.

Regarding `CC(=O)N1CCN(c2ccc(CN(C(=O)C=Cc3ccc(C(C)(C)C)cc3)[C@@H](Cc3ccccc3)C(=O)N3CCN(Cc4ccc(N(C)CCO)cc4)CC3)cc2)CC1` [Example 62, (S)-N-[4-(4-Acetyl-piperazin-1-yl)-benzyl]-N-[1-benzyl-2-(4-{4-[(2-hydroxy-ethyl)-methyl-amino]-benzyl}-piperazin-1-yl)-2-oxo-ethyl]-3-(4-tert-butyl-phenyl)-acrylamide], the inhibition in vivo at 100 mg/kg in test [1] stood at 99.4%. In addition, the IC50 in test [2] (setting [3]) is 0.7 nM; in test [2] (setting [4]), 3.2 nM.

“(S)-N-[4-(4-Acetyl-piperazin-1-yl)-benzyl]-N-[1-benzyl-2-(4-{4-[(2-hydroxy-ethyl)-methyl-amino]-benzyl}-piperazin-1-yl)-2-oxo-ethyl]-3-(4-isopropyl-phenyl)-acrylamide [Example 61]”: the “Activity (inhibition of parasitemia) expressed as a percent relative to the control group” value in test [1] turned out to be 98.8%. The IC50 was found to be 1.2 nM in test [2] (screening medium with Albumax (5 g/L), read-out: IC50 on NF54 (with Albumax)) and 6.7 nM in test [2] (screening medium with human serum (50% final concentration), read-out: IC50 on NF54 (with 50% Serum)).
